# Source: patent US11021688B2, “Derivation of human skin organoids from pluripotent stem cells” (INDIANA UNIVERSITY RESEARCH AND TECHNOLOGY CORPORATION, priority 2015, dated 2021)
# B1: bone morphogenetic protein-4 (protein, UniProt P12644 293-408, looked up)
# Bone morphogenetic protein 4: SPKHHSQRARKKNKNCRRHSLYVDFSDVGWNDWIVAPPGYQAFYCHGDCPFPLADHLNSTNHAIVQTLVNSVNSSIPKACCVPTELSAISMLYLDEYDKVVLKNYQEMVVEGCGCR
# notes: agonist of BMP signaling
# Tests used:
# Format in all cases: cell-based, human
# [1] = tested on: WA25 hESC and mND2-0 hiPSC aggregates; assay: Keratinocyte (non-neural ectoderm) induction in hPSC aggregates in 3D culture; details: n=40 aggregates per cell line across 4 experiments
# Experimental: We sought to develop a novel human non-neural induction protocol that could generate skin organoids. Human pluripotent stem cells of the WA25 cell line were dissociated in Essential 8 (E8) culture medium into single cells. Approximately 5000 cells were plated in each well of a 96-well V-bottom plate. Following 24 hours in culture, pluripotent cell aggregates that formed were transferred to 96-well U-bottom plates and cultured in a differentiation medium in the presence of Matrigel. This was considered “day 0” of differentiation (see FIG. 1). In comparing our mouse pluripotent stem cell (mPSC) system with our human (hPSC) system, it was observed that hPSCs appear to produce different endogenous signaling molecules that must be added as exogenous factors for mPSC cultures. Assays were performed to identify key factors dictating non-neural ectoderm induction in hPSC aggregates. It was determined that treating hPSC aggregates with the TGF signaling inhibitor SB-431542 in a chemically-defined medium with or without a low concentration of BMP4 (<5 ng/ml) (CDM; Table 1) produces a surface epithelium of TFAP2^+ (AP2) non-neural ectoderm cells (FIGS. 3A-3F). After a 10-12 day incubation, the aggregates were transferred to a floating culture on low-cell attachment plates in organoid maturation medium (OMM; see Table 2). […]
# hPSC-derived aggregates [2] = assay: Structures formed under treatment plans during days 0-12 of differentiation; details: treatment after initial 10 μM SB+4 ng/ml FGF; with or without insulin
# Source text: A-b, Treatment conditions during days 0-12 were: no treatment (NT), LDN (from d4-d12), LDN/FGF (from d4-d12), and LDN/FGF (from d4-d12)+CHIR (from d8-d12). From days 22-55, skin organoids formed in LDN/FGF and LDN/FGF/CHIR conditions with or without insulin. […] We detached the droplet embedded aggregates from the plate and placed them in a rotating or shaking floating culture in OMM for up to 60 days. By 30-55 days of culture, skin organoids consisted of KRT5^+ basal keratinocytes and PDGFRa^+ dermal fibroblasts (FIGS. 7A-7C). The skin organoids developed as a cyst with an inner layer of epidermis and an outer layer of dermis. We next wondered what mechanism controlled the induction of skin organoids and tested various treatment plans with or without insulin in the CDM during days 0-12 of differentiation (FIGS. 8A-8B). After 12 days, the aggregates were transferred to Matrigel in OMM as previously mentioned. […] Intriguingly, without insulin, the skin organoids were 2.5-3.5 times larger on average than insulin treated aggregates. We chose to continue our analysis with FGF/LDN and FGF/LDN/CHIR (without insulin) treated aggregates.
# [3] = tested on: hPSC-derived skin organoids; assay: Skin organoid size with or without insulin in the differentiation medium; details: LDN/FGF and LDN/FGF/CHIR conditions; n=6 organoids/condition
# Source text: A-b, Treatment conditions during days 0-12 were: no treatment (NT), LDN (from d4-d12), LDN/FGF (from d4-d12), and LDN/FGF (from d4-d12)+CHIR (from d8-d12). From days 22-55, skin organoids formed in LDN/FGF and LDN/FGF/CHIR conditions with or without insulin.
# We detached the droplet embedded aggregates from the plate and placed them in a rotating or shaking floating culture in OMM for up to 60 days. By 30-55 days of culture, skin organoids consisted of KRT5^+ basal keratinocytes and PDGFRa^+ dermal fibroblasts (FIGS. 7A-7C). The skin organoids developed as a cyst with an inner layer of epidermis and an outer layer of dermis. We next wondered what mechanism controlled the induction of skin organoids and tested various treatment plans with or without insulin in the CDM during days 0-12 of differentiation (FIGS. 8A-8B). After 12 days, the aggregates were transferred to Matrigel in OMM as previously mentioned. […] Intriguingly, without insulin, the skin organoids were 2.5-3.5 times larger on average than insulin treated aggregates. We chose to continue our analysis with FGF/LDN and FGF/LDN/CHIR (without insulin) treated aggregates.
# [4] = tested on: hPSC-derived skin organoids; assay: Pigmentation of hair follicles in skin organoids; details: pre-treated during days 8-12
# Experimental: After 4 days of incubation, 25 μl of CDM containing a 250 ng ml^−1 FGF-2 (50 ng/ml final concentration) and 1 μM LDN-193189 (200 nM final concentration) was added to the pre-existing 100 μl of media in each well. After an additional 4 days (8 days total), 250 of CDM was added to the media. For some experiments, CDM containing 18 μM CHIR99021 (3 μM final concentration; Stemgent) was added to the pre-existing 125 μl of media in each well. During day 12 transfer to OMM, aggregates were resuspended in ice cold undiluted GFR Matrigel and placed in approximately 25 μl droplets on the surface of a 100 mm bacterial culture plate. After at least 30 minutes of incubation at 37° C., the droplets were bathed in 10 ml of OMM. To avoid Matrigel droplet induction, the aggregates can be washed and plated individually into each well of a 24-well low cell adhesion plate in OMM containing 1% GFR Matrigel. After 18 days of differentiation, the CHIR was removed from the medium by washing and the droplet aggregates were moved to a floating culture. Droplets were carefully dislodged using a wide-mouth 1000P tip and transferred to 75 ml of fresh OMM in a 125 ml disposable spinner flask (Corning). Spinner flasks were maintained on an in-incubator stir plate (Thermo Scientific) at 65 RPM for up to 180 days of differentiation. […]
# hPSC-derived aggregates [5] = assay: Mesoderm induction (Brachyury immunohistochemistry) in hPSC aggregates
# Experimental: Representative Brachyury (BRA) immunohistochemistry in day 4 aggregates treated with 10 ng/ml BMP4 (a), 10 μM SB (b), and 10 μM SB+2.5 ng/ml BMP4 (c) on day 0. Scale bars, 50 μm.
# With human PSCs, TGFβ inhibition and endogenous BMP signaling promotes formation of TFAP2+ ECAD+ surface ectoderm by 3-6 days of differentiation.
molecule,measurement,setting,value
"NC(=O)c1ccc(-c2nc(-c3ccc4c(c3)OCO4)c(-c3ccccn3)[nH]2)cc1 [SB, SB-431542]",aggregates generating a 3D spheroid comprising TFAP2+KRT5+ keratinocytes,[1],100%
"c1ccc2c(-c3cnn4cc(-c5ccc(N6CCNCC6)cc5)cnc34)ccnc2c1 [LDN, LDN-193189]",structures formed by aggregates,hPSC-derived aggregates [2],primarily formed keratinocyte cyts
insulin: insulin component of the chemically-defined differentiation medium (CDM),size (long-axis diameter) of skin organoids in insulin-free conditions relative to conditions with insulin,[3],2.5-3.5 times
Cc1c[nH]c(-c2cnc(NCCNc3ccc(C#N)cn3)nc2-c2ccc(Cl)cc2Cl)n1 [CHIR99021],organoids producing pigmented hair follicles,[4],75%
B1,induction of mesodermal (BRA+) cells,hPSC-derived aggregates [5]; BMP treatment alone,mesoderm is induced
same,induction of mesodermal (Brachyury+) cells,hPSC-derived aggregates [5]; low concentration of BMP-4 during non-neural ectoderm induction,not induced
